Converted amounts (≈) assume the structure as drawn.
molecular target: T1, ISXoo15 transposase (Xanthomonas oryzae, UniProt A0A0K0GFE1); assay: biochemical; conditions: not given
T1 construct: gene PXO_03433
T1 sequence (A0A0K0GFE1 1-315): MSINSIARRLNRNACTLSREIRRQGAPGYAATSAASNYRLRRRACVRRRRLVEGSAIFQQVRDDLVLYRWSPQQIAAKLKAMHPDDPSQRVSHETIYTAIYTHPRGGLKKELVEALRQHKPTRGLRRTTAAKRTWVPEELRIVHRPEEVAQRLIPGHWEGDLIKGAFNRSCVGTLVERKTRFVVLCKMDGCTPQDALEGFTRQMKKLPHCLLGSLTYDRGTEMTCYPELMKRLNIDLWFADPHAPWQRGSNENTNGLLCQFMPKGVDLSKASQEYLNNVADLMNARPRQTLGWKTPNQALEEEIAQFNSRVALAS

Compound | Kd [nM]
C=C[C@]1(C)C[C@@H](OC(=O)CSc2ncc(OC)c(O)n2)[C@]2(C)[C@H](C)CC[C@]3(CCC(=O)[C@H]32)[C@@H](C)[C@@H]1O [J9] | 187

test system: Xanthomonas oryzae pv. oryzae (Xoo) PXO99A; assay: microbe, parasite or virus in culture; conditions: read-out: EC50 (mg/L)

Compound | EC50 [mg/L]
C=C[C@]1(C)C[C@@H](OC(=O)CSc2ncc(OC)c(OS(=O)(=O)CC)n2)[C@]2(C)[C@H](C)CC[C@]3(CCC(=O)[C@H]32)[C@@H](C)[C@@H]1O [J1] | 0.41 ± 0.15 (≈ 0.671 µM)
C=C[C@]1(C)C[C@@H](OC(=O)CSc2ncc(OC)c(OS(=O)(=O)c3ccc(C)cc3)n2)[C@]2(C)[C@H](C)CC[C@]3(CCC(=O)[C@H]32)[C@@H](C)[C@@H]1O [J2] | 0.26 ± 0.17 (≈ 0.386 µM)
C=C[C@]1(C)C[C@@H](OC(=O)CSc2ncc(OC)c(OS(=O)(=O)c3ccc(C(F)(F)F)cc3)n2)[C@]2(C)[C@H](C)CC[C@]3(CCC(=O)[C@H]32)[C@@H](C)[C@@H]1O [J3] | 0.81 ± 0.08 (≈ 1.11 µM)
C=C[C@]1(C)C[C@@H](OC(=O)CSc2ncc(OC)c(OS(=O)(=O)c3c(F)cccc3F)n2)[C@]2(C)[C@H](C)CC[C@]3(CCC(=O)[C@H]32)[C@@H](C)[C@@H]1O [J4] | 0.34 ± 0.04 (≈ 0.489 µM)
C=C[C@]1(C)C[C@@H](OC(=O)CSc2ncc(OC)c(OS(=O)(=O)c3c(F)c(F)c(F)c(F)c3F)n2)[C@]2(C)[C@H](C)CC[C@]3(CCC(=O)[C@H]32)[C@@H](C)[C@@H]1O [J5] | 0.77 ± 0.56 (≈ 1.03 µM)
C=C[C@]1(C)C[C@@H](OC(=O)CSc2ncc(OC)c(OS(=O)(=O)c3c(C)c(C)c(C)c(C)c3C)n2)[C@]2(C)[C@H](C)CC[C@]3(CCC(=O)[C@H]32)[C@@H](C)[C@@H]1O [J6] | 0.33 ± 0.09 (≈ 0.453 µM)
C=C[C@]1(C)C[C@@H](OC(=O)CSc2ncc(OC)c(OS(=O)(=O)c3cccc(Br)c3)n2)[C@]2(C)[C@H](C)CC[C@]3(CCC(=O)[C@H]32)[C@@H](C)[C@@H]1O [J7] | 0.27 ± 0.11 (≈ 0.366 µM)
C=C[C@]1(C)C[C@@H](OC(=O)CSc2ncc(OC)c(O)n2)[C@]2(C)[C@H](C)CC[C@]3(CCC(=O)[C@H]32)[C@@H](C)[C@@H]1O [J9] | 0.12 ± 0.02 (≈ 0.231 µM)
C=C[C@]1(C)C[C@@H](OC(=O)CSc2ncc(OC)c(OS(=O)(=O)c3cccc(F)c3)n2)[C@]2(C)[C@H](C)CC[C@]3(CCC(=O)[C@H]32)[C@@H](C)[C@@H]1O [J10] | 0.2 ± 0.13 (≈ 0.295 µM)
C=C[C@]1(C)C[C@@H](OC(=O)CSc2ncc(OC)c(OS(=O)(=O)c3ccc(Br)cc3OC(F)(F)F)n2)[C@]2(C)[C@H](C)CC[C@]3(CCC(=O)[C@H]32)[C@@H](C)[C@@H]1O [J11] | 0.39 ± 0.27 (≈ 0.475 µM)
C=C[C@]1(C)C[C@@H](OC(=O)CSc2ncc(OC)c(OS(=O)(=O)c3cccc(Cl)c3F)n2)[C@]2(C)[C@H](C)CC[C@]3(CCC(=O)[C@H]32)[C@@H](C)[C@@H]1O [J12] | 0.26 ± 0.12 (≈ 0.366 µM)
C=C[C@]1(C)C[C@@H](OC(=O)CSc2ncc(OC)c(OS(=O)(=O)c3cc(Br)c(F)cc3F)n2)[C@]2(C)[C@H](C)CC[C@]3(CCC(=O)[C@H]32)[C@@H](C)[C@@H]1O [J13] | 0.22 ± 0.05 (≈ 0.284 µM)
C=C[C@]1(C)C[C@@H](OC(=O)CSc2ncc(OC)c(OS(=O)(=O)c3ccc(Cl)cc3Br)n2)[C@]2(C)[C@H](C)CC[C@]3(CCC(=O)[C@H]32)[C@@H](C)[C@@H]1O [J14] | 0.3 ± 0.02 (≈ 0.389 µM)
C=C[C@]1(C)C[C@@H](OC(=O)CSc2ncc(OC)c(OS(=O)(=O)C3CC3)n2)[C@]2(C)[C@H](C)CC[C@]3(CCC(=O)[C@H]32)[C@@H](C)[C@@H]1O [J15] | 0.37 ± 0.09 (≈ 0.594 µM)
C=C[C@]1(C)C[C@@H](OC(=O)CSc2ncc(OC)c(OS(=O)(=O)c3ccc(F)cc3)n2)[C@]2(C)[C@H](C)CC[C@]3(CCC(=O)[C@H]32)[C@@H](C)[C@@H]1O [J16] | 0.26 ± 0.03 (≈ 0.384 µM)
C=C[C@]1(C)C[C@@H](OC(=O)CSc2ncc(OC)c(OS(=O)(=O)c3ccc(F)c(F)c3F)n2)[C@]2(C)[C@H](C)CC[C@]3(CCC(=O)[C@H]32)[C@@H](C)[C@@H]1O [J17] | 0.22 ± 0.09 (≈ 0.309 µM)
C=C[C@]1(C)C[C@@H](OC(=O)CSc2ncc(OC)c(OS(=O)(=O)c3ccc(C#N)cc3)n2)[C@]2(C)[C@H](C)CC[C@]3(CCC(=O)[C@H]32)[C@@H](C)[C@@H]1O [J18] | 0.29 ± 0.09 (≈ 0.424 µM)
C=C[C@]1(C)C[C@@H](OC(=O)CSc2ncc(OC)c(OS(=O)(=O)c3c(C)cc(C)cc3C)n2)[C@]2(C)[C@H](C)CC[C@]3(CCC(=O)[C@H]32)[C@@H](C)[C@@H]1O [J19] | 0.16 ± 0.06 (≈ 0.228 µM)
C=C[C@]1(C)C[C@@H](OC(=O)CSc2ncc(OC)c(OS(=O)(=O)c3c(C)c(C)cc(C)c3C)n2)[C@]2(C)[C@H](C)CC[C@]3(CCC(=O)[C@H]32)[C@@H](C)[C@@H]1O [J20] | 0.35 ± 0.06 (≈ 0.49 µM)
C=C[C@]1(C)C[C@@H](OC(=O)CSc2ncc(OC)c(OS(=O)(=O)CCCC)n2)[C@]2(C)[C@H](C)CC[C@]3(CCC(=O)[C@H]32)[C@@H](C)[C@@H]1O [J21] | 2.79 ± 0.39 (≈ 4.37 µM)
C=C[C@]1(C)C[C@@H](OC(=O)CSc2ncc(OC)c(OS(=O)(=O)c3ccc(Cl)cc3)n2)[C@]2(C)[C@H](C)CC[C@]3(CCC(=O)[C@H]32)[C@@H](C)[C@@H]1O [J22] | 0.34 ± 0.17 (≈ 0.49 µM)
C=C[C@]1(C)C[C@@H](OC(=O)CSc2ncc(OC)c(OS(=O)(=O)c3ccc(CC)cc3)n2)[C@]2(C)[C@H](C)CC[C@]3(CCC(=O)[C@H]32)[C@@H](C)[C@@H]1O [J23] | 0.58 ± 0.07 (≈ 0.844 µM)
C=C[C@]1(C)C[C@@H](OC(=O)CSc2ncc(OC)c(OS(=O)(=O)c3ccc(OC(F)(F)F)cc3)n2)[C@]2(C)[C@H](C)CC[C@]3(CCC(=O)[C@H]32)[C@@H](C)[C@@H]1O [J24] | 0.26 ± 0.05 (≈ 0.35 µM)

Source: article PMC12620416 (Molecular Plant Pathology, 2025)
